From patent US20150344540A1, “NOVEL GLP-1 RECEPTOR AGONISTS WITH CHOLESTEROL EFFLUX ACTIVITY” (NOVO NORDISK A/S, priority 2012, published 2015)
Where a SMILES comes first, the peptide text is derived from it. [ ]: non-standard residue; d: D form. Aib = CC(C)(N)C(=O)O

System: Mouse monocyte/macrophage cell line, RAW 264.7
Assay: Cholesterol efflux assay (3H-cholesterol, macrophage cell line)
Type: cell-based
Details: RAW 264.7, 4 hrs incubation, 0.1% human serum albumin, ABCA1-mediated efflux

In order of falling “4 h Cholesterol Efflux Emax” value:
1. CC[C@H](C)[C@H](NC(=O)[C@H](Cc1ccccc1)NC(=O)[C@H](CCC(=O)O)NC(=O)[C@H](CCCCN)NC(=O)[C@@H](NC(=O)[C@H](C)NC(=O)[C@H](CCC(=O)O)NC(=O)CNC(=O)[C@H](CCC(=O)O)NC(=O)[C@H](CC(C)C)NC(=O)[C@H](Cc1ccc(O)cc1)NC(=O)[C@H](CO)NC(=O)[C@H](CO)NC(=O)[C@@H](NC(=O)[C@H](CC(=O)O)NC(=O)[C@H](CO)NC(=O)[C@@H](NC(=O)[C@H](Cc1ccccc1)NC(=O)[C@@H](NC(=O)CNC(=O)[C@H](CCC(=O)O)NC(=O)C(C)(C)NC(=O)[C@@H](N)Cc1c[nH]cn1)[C@@H](C)O)[C@@H](C)O)C(C)C)C(C)C)C(=O)N[C@@H](C)C(=O)N[C@@H](Cc1c[nH]c2ccccc12)C(=O)N[C@@H](CC(C)C)C(=O)N[C@H](C(=O)N[C@@H](CCC(=O)O)C(=O)N[C@@H](CCCCN)C(=O)N[C@@H](Cc1ccccc1)C(=O)N[C@@H](CCCCN)C(=O)N[C@@H](CCC(=O)O)C(=O)N[C@@H](Cc1ccccc1)C(=O)N[C@@H](Cc1ccccc1)C(N)=O)C(C)C [Compound 93, [Aib8,Glu23,Val25,Glu34,Lys35,Phe36,Lys37]-GLP-1-(7-37)-peptidyl-Glu-Phe-Phe amide] (H-H[Aib]EGTFTSDVSSYLEGEAVKEFIAWLVEKFKEFF-NH2)  113%
2. CC[C@H](C)[C@H](NC(=O)[C@H](Cc1ccccc1)NC(=O)[C@H](CCC(=O)O)NC(=O)[C@H](CCCNC(=N)N)NC(=O)[C@@H](NC(=O)[C@H](C)NC(=O)[C@H](CCC(=O)O)NC(=O)[C@H](CCC(=O)O)NC(=O)[C@H](CCC(=O)O)NC(=O)[C@H](CCSC)NC(=O)[C@H](CCC(N)=O)NC(=O)[C@H](CCCCN)NC(=O)[C@H](CO)NC(=O)[C@H](CC(C)C)NC(=O)[C@H](CC(=O)O)NC(=O)[C@H](CO)NC(=O)[C@@H](NC(=O)[C@H](Cc1ccccc1)NC(=O)[C@@H](NC(=O)CNC(=O)[C@H](CCC(=O)O)NC(=O)C(C)(C)NC(=O)[C@@H](N)Cc1c[nH]cn1)[C@@H](C)O)[C@@H](C)O)C(C)C)C(=O)N[C@@H](CCC(=O)O)C(=O)N[C@@H](Cc1c[nH]c2ccccc12)C(=O)N[C@@H](CC(C)C)C(=O)N[C@@H](CCCCN)C(=O)N[C@@H](CC(N)=O)C(=O)N[C@@H](CCCCN)C(=O)NC(C)(C)C(=O)N[C@@H](CC(C)C)C(=O)N[C@@H](CO)C(=O)N[C@@H](Cc1ccccc1)C(=O)N[C@@H](CC(C)C)C(=O)N[C@@H](CCC(=O)O)C(=O)N[C@@H](CC(C)C)C(=O)N[C@@H](CC(C)C)C(N)=O [Compound 36, [Aib2,Glu21,Lys29,Aib30,Leu31,Phe33,Leu34,Glu35,Leu36,Leu371-Exendin-4-(1-37)-peptide amide] (H-H[Aib]EGTFTSDLSKQMEEEAVREFIEWLKNK[Aib]LSFLELL-NH2; N-terminus assumed)  95%
3. CC[C@H](C)[C@H](NC(=O)[C@H](Cc1ccccc1)NC(=O)[C@H](CCC(=O)O)NC(=O)[C@H](CCCCN)NC(=O)[C@H](C)NC(=O)[C@H](C)NC(=O)[C@H](CCC(N)=O)NC(=O)CNC(=O)[C@H](CCC(=O)O)NC(=O)[C@H](CC(C)C)NC(=O)[C@H](Cc1ccc(O)cc1)NC(=O)[C@H](CO)NC(=O)[C@H](CO)NC(=O)[C@@H](NC(=O)[C@H](CC(=O)O)NC(=O)[C@H](CO)NC(=O)[C@@H](NC(=O)[C@H](Cc1ccccc1)NC(=O)[C@@H](NC(=O)CNC(=O)[C@H](CCC(=O)O)NC(=O)C(C)(C)NC(=O)[C@@H](N)Cc1c[nH]cn1)[C@@H](C)O)[C@@H](C)O)C(C)C)C(=O)N[C@@H](C)C(=O)N[C@@H](Cc1c[nH]c2ccccc12)C(=O)N[C@@H](CC(C)C)C(=O)N[C@H](C(=O)N[C@@H](CCCCN)C(=O)NCC(=O)N[C@H](C(=O)NCC(=O)N[C@@H](CCC(=O)O)C(=O)N[C@@H](Cc1ccccc1)C(=O)N[C@@H](CC(C)C)C(N)=O)C(C)C)C(C)C [Compound 75]  68%
